Results taken from US20180180626A1, “A METHOD FOR DEVELOPMENT OF RECOMBINANT PROTEINS WITH FINGERPRINT LIKE SIMILARITY TO THE REFERENCE PRODUCT” (STC Biologics, Inc., priority 2014, published 2018).

How the values were obtained:
[1] = system: fucosyl transferase; experiment: 2AB glycan analysis of trastuzumab biosimilar isolated from CHO cells treated with 2F-Peracetyl-Fucose (FTI); assay type: cell-based, Chinese Hamster
Method: Chromatography by HPLC or UPLC is another powerful method to analyze recombinant proteins. For example, glycan species can he quantitated using a fluorescent 2AB labeling method. In this method, glycans are first removed from the protein by digestion with N-glycanase and then a fluorescent label is added to each glycan. The glycans can then be resolved using HILIC based chromatography and quantitated by measuring relative area under the curve. For oxidation quantitation an HIC based method can be used.
To obtain a recipe for production of a biosimilar with a similar glycosylation pattern to the original Herceptin®, CHO cells engineered to express the recombinant protein with an amino acid sequence identical to trastuzumab were first grown in the growth media without any inhibitors to establish a baseline. The glycan Species were analyzed using 2AB glycan method. It was observed that Peak 2 (G0) and Peak 6 (G1), and Peak 7 (mannose-5 and G1′) modifications were lower for the biosimilar than their target profile.
G0, G1 and G1′ modifications are non-fucosylated modifications and are controlled by a host protein called fucosyl transferase and the mannose-5 modification is controlled by the host protein known as α-mannosidase 1. Fucosyl transferase can be inhibited by a variety of fucosyltransferase inhibitors shown in FIG. 2, α-mannosidase 1 can be inhibited by kifunensine.
Briefly to obtain trastuzumab with modifications in the target range, cells were placed in growth media and treated with 2F-Peracetyl-Fucose (FTI) on day 7 at different concentrations (20 μM. 10 μM, 5 μM, 1 μM, 0.1 μM) to identify optimal drug concentration. On day 12 cells were harvested and the trastuzumab biosimilar isolated. […] FTI concentrations used to reach target profile are cell specific so it is expected that different concentrations of the FTI or other modulators would be required when a starting cell line is different from the one described in this example.
Different treatment methods such as Method 2 can be used to obtain target profile. For example, FTI can be added on a daily basis starting on day 5 (Table 3, Method 2) rather than on Day 7.

[2] = system: α-mannosidase I; experiment: 2AB glycan analysis of trastuzumab biosimilar isolated from CHO cells treated with kifunensine (KFI), with FTI; assay type: cell-based, Chinese Hamster; details: treated on Day 7; tested about 0.001 ng/ml-100 ng/ml
Method: Chromatography by HPLC or UPLC is another powerful method to analyze recombinant proteins. For example, glycan species can he quantitated using a fluorescent 2AB labeling method. In this method, glycans are first removed from the protein by digestion with N-glycanase and then a fluorescent label is added to each glycan. The glycans can then be resolved using HILIC based chromatography and quantitated by measuring relative area under the curve. For oxidation quantitation an HIC based method can be used. To obtain a recipe for production of a biosimilar with a similar glycosylation pattern to the original Herceptin®, CHO cells engineered to express the recombinant protein with an amino acid sequence identical to trastuzumab were first grown in the growth media without any inhibitors to establish a baseline. The glycan Species were analyzed using 2AB glycan method. It was observed that Peak 2 (G0) and Peak 6 (G1), and Peak 7 (mannose-5 and G1′) modifications were lower for the biosimilar than their target profile. G0, G1 and G1′ modifications are non-fucosylated modifications and are controlled by a host protein called fucosyl transferase and the mannose-5 modification is controlled by the host protein known as α-mannosidase 1. Fucosyl transferase can be inhibited by a variety of fucosyltransferase inhibitors shown in FIG. 2, α-mannosidase 1 can be inhibited by kifunensine. […]

[3] = Method 2 - […]-[…] FTI every day starting at day 5

Q: For `CC(=O)OC1O[C@@H](C)[C@@H](OC(C)=O)[C@@H](OC(C)=O)[C@@H]1F` (some centres unmarked) [FTI, 2F-Peracetyl-Fucose], which “G0, G1 and G1′ levels versus target PTM range” value ([1]; 10 μM FTI on day 7, harvest day 12) is on record?
A: matched the target PTM range

Q: And the “G0, G1 and G1′ levels versus target PTM range” value ([1]; 20 μM FTI on day 7, harvest day 12)?
A: increase of G0, G1 and G1′ PTMs above that of target PTMs

Q: What about the “modifications versus target range” value ([1]; FTI at concentrations lower than 8 μM) of the same compound?
A: outside the target range

Q: And the “Glycan Species Peak 2-G0” value ([1]; Method 1 - 10 μM FTI - Day 7)?
A: 4%

Q: And the “Glycan Species Peak 3” value ([1]; Method 1 - 10 μM FTI - Day 7)?
A: 1.5%

Q: And the “Glycan Species Peak 4-G0F” value ([1]; Method 1 - 10 μM FTI - Day 7)?
A: 44%

Q: What about the “Glycan Species Peak 5” value ([1]; Method 1 - 10 μM FTI - Day 7) of the same compound?
A: 0.8%

Q: What about the “Glycan Species Peak 6-G1” value ([1]; Method 1 - 10 μM FTI - Day 7) of the same compound?
A: 1.8%

Q: And the “Glycan Species Peak 7- G1F/mannose 5” value ([1]; Method 1 - 10 μM FTI - Day 7)?
A: 1.2%

Q: And the “Glycan Species Peak 8- (1,6)G1F” value ([1]; Method 1 - 10 μM FTI - Day 7)?
A: 26%

Q: And the “Glycan Species Peak 9 (1,3)G1F” value ([1]; Method 1 - 10 μM FTI - Day 7)?
A: 11%

Q: And the “Glycan Species Peak 10 G2F” value ([1]; Method 1 - 10 μM FTI - Day 7)?
A: 6.5%

Q: And the “Glycan Species Peak 11” value ([1]; Method 1 - 10 μM FTI - Day 7)?
A: 0.2%

Q: What about the “Glycan Species Peak 12” value ([1]; Method 1 - 10 μM FTI - Day 7) of the same compound?
A: 0.25%

Q: What about the “Glycan Species Peak 13” value ([1]; Method 1 - 10 μM FTI - Day 7) of the same compound?
A: 0.2%

Q: What about the “Glycan Species Peak 14” value ([1]; Method 1 - 10 μM FTI - Day 7) of the same compound?
A: 0.2%

Q: What about the “Glycan Species Peak 15” value ([1]; Method 1 - 10 μM FTI - Day 7) of the same compound?
A: 0.2%

Q: And the “Glycan Species Peak 1” value ([1]; Method 1 - 10 μM FTI - Day 7, trastuzumab biosimilar, harvest day 12)?
A: 1.5%

Q: And the “Glycan Species Peak 4-G0F” value [1, 3]?
A: 44%

Q: What about the “Glycan Species Peak 8- (1,6)G1F” value [1, 3] of the same compound?
A: 26%

Q: What about the “Glycan Species Peak 9 (1,3)G1F” value [1, 3] of the same compound?
A: 11%

Q: And the “Glycan Species Peak 10 G2F” value [1, 3]?
A: 6.5%

Q: With `O=C1N[C@@H]2[C@@H](O)[C@@H](O)[C@H](O)[C@@H](CO)N2C1=O` [kifunensine] as the compound, how does the “ideal concentration for optimization of the mannose species” value [2] read?
A: 1 to 10 ng/mL
